Experiment [1] has as its system IL-10 mRNA expression in AMJ2-C11 cells. The experiment in a line: IL-10 mRNA expression by RT-PCR in AMJ2-C11 cells. The format is cell-based, mouse. As to conditions: SR-stimulated 24 h, 80 μM. Here is the method: The effect of nicotine or DMPP treatment on AMJ2-C11 cells was tested on TNF-α, IL-10 mRNA expression by RT-PCR. These cytokines are involved in the development of pulmonary inflammatory diseases such as HP, asthma and sarcoidosis (52-55). […] Reference is made to FIG. 3 where results are expressed as a % of expression, 100% being attributed to the LPS alone group. The intensity of the band was obtained by dividing the intensity of the TNF-α band by that of β-actin. […] Reference is made to FIG. 4 where results are expressed as described in FIG. 5.

For experiment [2], the system named is lung resistance after metacholine challenge. The experiment in a line: Airway hyper-reactivity / lung resistance to metacholine in asthmatic mice (FlexiVENT). The format is in vivo. As to conditions: 0.5 mg/kg intranasal DMPP. Here is the method:
Airway hyper-reactivity (AHR) in response to metacholine was measured in anesthetized, tracheotomized, ventilated mice using a computer-controlled ventilator (FlexiVENT™).
Increasing doses of metacholine (0 mg/kg-32.5 mg/kg) were administered through the jugular vein.
Lung response to a broncho-constrictive agent, metacholine, was measured by a Flexi-vent® apparatus. Ovalbumin-sensitized animals were treated intra-nasally with ASM-002 (4 mg/kg) during 3 days and 10 minutes prior to the metacholine challenge and compared to untreated OVA-sensitized animals. A negative control group of un-sensitized animals and a positive control group that received Salbutamol (Ventolin) 10 minutes before the metacholine challenge were also included.

For experiment [3], the system named is TNF release by human blood monocytes. Description: cells. The format is cell-based. As to conditions: 40 μM, mean of 5 subjects. As for the experimental part: Human monocytes were isolated from the blood of asthmatic patients by Ficoll-paque density gradient, let to adhere to tissue culture plates and stimulated with LPS (100 ng/ml) for 18 hours at 37° C. with or without increasing concentrations of nicotine. The release of TNF, a potent pro-inflammatory mediator, was measured in the cell culture supernatant by the ELISA method. Results are expressed as a percentage release from LPS-stimulated untreated cells (FIG. 28).
Tumor necrosis factor (TNF) is a mediator released in inflammatory states.
Human blood monocytes were isolated by Ficoll-paque density gradient, let to adhere to tissue culture plates and stimulated with LPS (100 ng/ml) for 18 hours at 37° C. with or without increasing concentrations of nicotine analogues.

Where “and” joins values, the source holds several entries; their conditions need not be identical. Equal values may be shown once.

The record followed here is US8557804B2, “Nicotinic receptor agonists for the treatment of inflammatory diseases” (priority 2002, dated 2013).

For the molecule `C[N+]1(C)CCN(c2ccccc2)CC1` [DMPP, Dimethylphenylpiperazinium], the “reduction (drop) of IL-10 mRNA expression” value in experiment [1] is 87% and 90%. For the same molecule, the “% of augmentation of lung resistance compared to asthmatic mice” value in experiment [2] (metacholine 0-32.5 mg/kg) is listed as “reduced”. In addition, the “PC200 (provocative challenge dose of 200% lung resistance augmentation) compared to asthmatic mice” value in experiment [2] (p=0.04, n=6) is “significantly reduced”. Besides, the TNF release entry in experiment [3] is recorded as “inhibits TNF release”.
